In patent US12029731B2, “Acyl benzo[d]thiazol-2-amine and their methods of use” (Biohaven Pharmaceutical Holding Company Ltd., priority 2016, dated 2024):
Entries after “also recorded” stand apart in the source; their conditions may differ.

Assays:
[1] = tested on: C8161 cells; settings: C8161 human melanoma cells; cited from earlier work
[2] = tested on: C8161 cells; settings: positive control, in comparison with no treatment and DMSO treated; cited from earlier work
[3] = tested on: Stage III and IV melanoma; experiment: Phase 0 human clinical trial of riluzole in melanoma patients; type: in vivo; settings: after only 14 days of treatment
Text: We have recently shown that riluzole has dramatic anti-melanoma activity in vitro cellular assays, in mice and in a Phase 0 human clinical trial. […] However, the therapeutic utility of riluzole itself in ALS and eventually for melanoma is very constrained by rapid first-pass metabolism in the liver and an exceptionally high level of patient-to-patient variability in the extent of the Cyp1A2-mediated oxidative metabolism that is observed.

SMILES: Nc1nc2ccc(OC(F)(F)F)cc2s1 [riluzole]
- effect on excess cellular glutamate [1]: inhibits excess cellular gluatamate
- C8161 cell growth [2]: dose-dependent suppression
- patients with clinical or radiologic evidence of tumor response [3]: four of 12; also recorded: four of twelve
